# Experiments:
# [1] = system: Malat1 RNA; test: Malat1 RNA expression level after intraventricular administration (target gene suppression effect); type: in vivo, mouse; details: 7 days
# Protocol: (§1) Seven-week-old female ICR mice anesthetized with 2.5 to 4% isoflurane were fixed to a brain stereotaxic apparatus. Then, skin between the ears was cut open 2 to 3 cm anteroposteriorly, and perforated 1 mm leftward and 0.2 mm posteriorly from the bregma using a 1 mm diameter drill. A Hamilton syringe was filled with the nucleic acid agent. Through the perforated site, a needle was inserted approximately 3 mm deep. The ASO at a dose of 0.95 nmol (5 μg) per mouse was administered into the left lateral ventricle (n=4 to 7/group). The group to which ASO and TGN-073 were coadministered (hereinafter, the group is referred to as the “ASO/TGN-073 coadministration group”) means that ASO mixed with TGN-073 was administered. The group to which only ASO was administered (hereinafter, the group is referred to as the “ASO single administration group”) means that only ASO was administered without being mixed with TGN-073. The dose of TGN-073 in the ASO/TGN-073 coadministration group was 0.25 mg per mouse. After the intraventricular administration, the skin was sutured with a nylon thread. In addition, mice to which only TGN-073 was administered (hereinafter, the mice are referred to as the “TGN-073 administration group”) and mice to which only PBS was administered (hereinafter, the mice are referred to as the “PBS administration group”) were produced as controls.
# (§2) A left hippocampus was extirpated from each of the mice at 3 hours or 7 days after the intraventricular administration. Using an IsogenI kit (GeneDesign Inc.), RNA was extracted from the left hippocampus extirpated. A cDNA was synthesized using Transcriptor Universal cDNA Master, DNase (Roche Diagnostics) in accordance with the protocol.
# (§3) Next, quantitative RT-PCR was performed with TaqMan (Roche Applied Science). Primers used in quantitative RT-PCR were products designed and manufactured by Thermo Fisher Scientific Inc. (formerly known as Life Technologies Corp.) on the basis of the various numbers of genes. Amplification conditions (temperature and time) were as follows: one cycle—95 °C for 15 seconds, 60 °C for 30 seconds, and 72 °C for 1 second—was repeated 40 times. The ratio of the expression amount of Malat1 RNA to the expression amount of Actb mRNA (internal standard gene) was calculated, and a value standardized with respect to the value of the PBS-treated group was determined as a relative Malat1 RNA level.
# In this Example, the ASO targeted at Malat1, and used in Example 1 (the ASO described in Table 1) was used. Performed in accordance with Example 1 were: the preparation of a nucleic acid; an in vivo experiment; and the evaluation of the intracerebral ASO concentration (the amount of the nucleic acid delivered to the brain); and the target gene suppression effect. […]
# [2] = ASO concentration in spinal cord and left hippocampus after intrathecal administration; type: in vivo; details: rat, coadministered with Mapt-targeting ASO of Table 2 (76 nmol, 400 μg per rat), 7 days
# Protocol: In this Example, an ASO having the same configuration as the ASO used in Example 3 (the ASO described in Table 2) was used, and a nucleic acid was prepared by the same method as in Example 1.
# The intrathecal administration of ASO and the measurement of the ASO concentration were performed by the following methods. A catheter was inserted into the spinal subarachnoid of an 8-week-old Slc:SD rat (male). When the rat was 9 weeks old, ASO and/or TGN-073 in an amount of 76 nmol (400 μg) per rat ([…]) was administered intrathecally. Hereinafter, the rats to which ASO alone was intrathecally administered are referred to as the “ASO single administration group”, and the rats to which ASO and TGN-073 were intrathecally administered together are referred to as the “ASO/TGN-073 coadministration group”. The spinal part and the left hippocampus were extirpated from the rats at 7 days after the intrathecal administration, and the ASO concentration in each tissue was evaluated by the same method as in Example 1.
# [3] = system: Aquaporin-4; details: as disclosed in WO2017/150704 and Huber V. J. et al., NeuroReport, 2018; cited from earlier work
# [4] = system: Mapt mRNA; test: Mapt mRNA expression level in the hippocampus after intraventricular administration (target gene suppression effect); type: in vivo, mouse; details: 7 days
# Protocol: Seven-week-old female ICR mice anesthetized with 2.5 to 4% isoflurane were fixed to a brain stereotaxic apparatus. Then, skin between the ears was cut open 2 to 3 cm anteroposteriorly, and perforated 1 mm leftward and 0.2 mm posteriorly from the bregma using a 1 mm diameter drill. A Hamilton syringe was filled with the nucleic acid agent. Through the perforated site, a needle was inserted approximately 3 mm deep. The ASO at a dose of 0.95 nmol (5 μg) per mouse was administered into the left lateral ventricle (n=4 to 7/group). The group to which ASO and TGN-073 were coadministered (hereinafter, the group is referred to as the “ASO/TGN-073 coadministration group”) means that ASO mixed with TGN-073 was administered. […]
# as §3, with “Amplification conditions (temperature and time) were as follows: one cycle—95 °C for 15 seconds, 60 °C for 30 seconds, and 72 °C for 1 second—was repeated 40 times.” left out, “level. […]” for “level.”
# [5] = ASO concentration in mouse nervous tissue after intraventricular administration (quantitative RT-PCR relative to U6 snRNA); type: in vivo
# Protocol: as §1, §2
# The intracerebral ASO concentration (the amount of the nucleic acid delivered to the brain) was measured by extracting RNA from the left hippocampus extirpated in the same manner as described above, and performing quantitative RT-PCR using a primer pair for amplifying ASO and TaqMan Small RNA Assay (Roche Applied Science). The intracerebral ASO concentration was obtained by calculating the ASO content relative to U6 snRNA (an internal standard gene). […]
structure (smiles),measurement,setting,value
"O=S(=O)(Nc1ncccc1OCc1ccccc1)c1ccccc1 [TGN-073, N-(3-benzyloxypyridin-2-yl)-benzene-sulfonamide]",Target gene (Malat1) suppression effect in the hippocampus vs ASO single administration,"[1]; coadministered with 2′-O-MOE-modified ASO (1.7 nmol, 12.5 μg)",an augmentation of the target gene suppression effect
same,Target gene (Malat1) suppression effect in the hippocampus vs nucleic acid agent alone,"[1]; coadministered with ASO, HDO or Chol-HDO (0.95 nmol), any of the groups",marked enhancement
same,Suppression effect on the Malat1 gene in the hippocampus vs ASO single administration,"[1]; coadministered with Malat1-targeting ASO (0.95 nmol), TGN-073 0.25 mg per mouse",markedly enhanced
same,Target gene (Malat1) suppression effect in the lumbar cord portion vs ASO single administration,"[1]; coadministered with Malat1-targeting ASO (1.7 nmol, 12.5 μg)",marked enhancement
same,ASO concentration in the left hippocampus vs ASO single administration,[2],dramatic increase
same,ASO concentration in the spinal part vs ASO single administration,[2],dramatic increase
same,Promotion of the function of Aquaporin-4,[3],can promote the function of Aquaporin-4
same,Target gene (Mapt) suppression effect in the hippocampus vs ASO single administration,"[4]; Example 7, coadministered with Mapt-targeting ASO of Table 6 (9.4 nmol, 50 μg), TGN-073-mes 0.125 mg/mouse per method",marked enhancement
same,Target gene (Mapt) suppression effect in the hippocampus vs ASO single administration,"[4]; coadministered with Mapt-targeting ASO of Table 2 (9.4 nmol, 50 μg)",marked augmentation
same,ASO concentration in the central nervous system (hippocampus) vs ASO single administration,"[5]; Example 7, coadministered with Mapt-targeting ASO of Table 6 (9.4 nmol, 50 μg), TGN-073-mes 0.125 mg/mouse per method, 7 days",marked enhancement
same,ASO concentration in the central nervous system (hippocampus) vs nucleic acid agent alone,"[5]; coadministered with ASO (single-stranded, 0.95 nmol), 7 days",dramatic increase
same,ASO concentration in the central nervous system (hippocampus) vs nucleic acid agent alone,"[5]; coadministered with Chol-HDO (0.95 nmol), 7 days",dramatic increase
same,ASO concentration in the central nervous system (hippocampus) vs nucleic acid agent alone,"[5]; coadministered with HDO (0.95 nmol), 7 days",dramatic increase
same,ASO concentration in the hippocampus (amount of nucleic acid delivered to the brain) vs ASO single administration,"[5]; coadministered with Malat1-targeting ASO (0.95 nmol, 5 μg), TGN-073 0.25 mg per mouse, 3 hours or 7 days",dramatic increase
same,ASO concentration in the lumbar cord portion vs ASO single administration,"[5]; coadministered with Malat1-targeting ASO (1.7 nmol, 12.5 μg), 7 days",dramatic increase

# — patent publication US20260347843A1, “NERVOUS SYSTEM DELIVERY ENHANCER” (priority 2022, published 2026)
